Measurements as given in BindingDB's records for doi:10.3109/14756366.2011.649269 (Università di Firenze, 2013).
pIC50: −log10 of the molar value.

Experiments:
Assay in all cases: Carbonic Anhydrase I, II, IV and XII Assay
Settings in all cases: pH 7.5; 25 °C
Carbonic anhydrase 2 = Carbonic anhydrase 2 (Homo sapiens, UniProt P00918)
Protocol: (§1) An Applied Photophysics stopped-flow instrument has been used for assaying the CA catalysed CO2 hydration activity [Khalifah et al., J. Biol. Chem., 246:2561-2573]. Phenol red (at a concentration of 0.2 mM) has been used as indicator, working at the absorbance maximum of 557 nm, with 10-20 mM Hepes (pH 7.5) as buffer, and 20 mM Na2SO4 (for maintaining constant the ionic strength), following the initial rates of the CA-catalyzed CO2 hydration reaction for a period of 10-100 s. The CO2 concentrations ranged from 1.7 to 17 mM for the determination of the kinetic parameters and inhibition constants. For each inhibitor at least six traces of the initial 5-10% of the reaction have been used for determining the initial velocity. The uncatalyzed rates were determined in the same manner and subtracted from the total observed rates. Stock solutions of inhibitor (10 mM) were prepared in distilled-deionised water and dilutions up to 0.01 nM were done thereafter with distilled-deionised water. Inhibitor and enzyme solutions were preincubated together for 15 min at room temperature prior to assay, in order to allow for the formation of the E-I complex.

Carbonic anhydrase 1 = Carbonic anhydrase 1 (Homo sapiens, UniProt P00915)
Chain of Carbonic anhydrase 1 (P00915 whole entry): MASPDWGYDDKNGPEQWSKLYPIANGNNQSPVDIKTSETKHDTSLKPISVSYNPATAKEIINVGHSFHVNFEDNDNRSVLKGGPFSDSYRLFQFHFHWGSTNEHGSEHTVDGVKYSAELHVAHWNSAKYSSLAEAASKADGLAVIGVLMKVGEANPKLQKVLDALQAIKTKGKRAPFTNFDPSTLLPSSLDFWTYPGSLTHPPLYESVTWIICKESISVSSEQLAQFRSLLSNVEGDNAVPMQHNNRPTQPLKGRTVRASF
Protocol: as §1

Carbonic anhydrase 12 = Carbonic anhydrase 12 (Homo sapiens, UniProt O43570)
Chain of Carbonic anhydrase 12 (O43570 whole entry): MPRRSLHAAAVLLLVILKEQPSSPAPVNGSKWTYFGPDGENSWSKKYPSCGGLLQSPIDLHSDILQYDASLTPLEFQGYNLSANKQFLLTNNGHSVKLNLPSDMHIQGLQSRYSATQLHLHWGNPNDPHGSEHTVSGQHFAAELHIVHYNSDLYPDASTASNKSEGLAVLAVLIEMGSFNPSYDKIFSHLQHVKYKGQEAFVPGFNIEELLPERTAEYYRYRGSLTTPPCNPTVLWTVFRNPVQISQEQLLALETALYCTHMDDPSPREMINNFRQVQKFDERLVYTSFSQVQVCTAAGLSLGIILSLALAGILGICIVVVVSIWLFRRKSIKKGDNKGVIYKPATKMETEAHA
Protocol: as §1

Carbonic anhydrase 4 = Carbonic anhydrase 4 (Homo sapiens, UniProt P22748)
Chain of Carbonic anhydrase 4 (P22748 whole entry): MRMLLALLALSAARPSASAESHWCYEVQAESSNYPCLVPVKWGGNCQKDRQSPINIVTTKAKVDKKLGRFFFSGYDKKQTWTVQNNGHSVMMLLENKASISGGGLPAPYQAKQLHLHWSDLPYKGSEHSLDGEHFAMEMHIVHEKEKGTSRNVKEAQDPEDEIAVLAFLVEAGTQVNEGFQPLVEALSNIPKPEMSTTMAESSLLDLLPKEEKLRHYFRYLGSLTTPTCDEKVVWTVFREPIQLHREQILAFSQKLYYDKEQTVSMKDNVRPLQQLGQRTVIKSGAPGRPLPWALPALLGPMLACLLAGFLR
Protocol: as §1

pIC50 (Carbonic anhydrase 2) | pIC50 (Carbonic anhydrase 1) | pIC50 (Carbonic anhydrase 12) | pIC50 (Carbonic anhydrase 4) | Structure (SMILES)
6.67 | 6.64 | 6.19 | 6.21 | NS(=O)(=O)c1ccc(C(=O)NCCCN2CCOCC2)cc1 [4-Sulfamoyl-N-(3-morpholinopropyl)benzamide (I-1)]
7.09 | 7.22 | 6.13 | 6.29 | CCN(CC)CCOc1ccc(CNS(=O)(=O)c2ccc(S(N)(=O)=O)cc2)cc1 [N-(4-diethylaminoethoxybenzyl)benzene-1,4-bis-sulfonamide (I-3)]
7.18 | 7.24 | 6.29 | 6.30 | NS(=O)(=O)c1ccc(S(=O)(=O)NCCCN2CCOCC2)cc1 [N-(3-morpholinopropyl)benzene-1,4-disulfonamide (I-2)]
